Data published in US12479827B2, “Heteroaromatic carboxamide derivatives as plasma kallikrein inhibitors” (Boehringer Ingelheim International GmbH, priority 2020, dated 2025).

Assays:
Human PKK = molecular target: T1, Human PKK (Homo sapiens, UniProt P03952); experiment: Inhibition of PKK using an endpoint assay (human PKK); type: biochemical; details: fluorogenic substrate H-Pro-Phe-Arg-AMC, 1 h room temperature, method names human or rat PKK, table does not say which
T1 construct: purchased Enzyme Research Laboratories
T1 sequence (P03952 20-390 limits assumed): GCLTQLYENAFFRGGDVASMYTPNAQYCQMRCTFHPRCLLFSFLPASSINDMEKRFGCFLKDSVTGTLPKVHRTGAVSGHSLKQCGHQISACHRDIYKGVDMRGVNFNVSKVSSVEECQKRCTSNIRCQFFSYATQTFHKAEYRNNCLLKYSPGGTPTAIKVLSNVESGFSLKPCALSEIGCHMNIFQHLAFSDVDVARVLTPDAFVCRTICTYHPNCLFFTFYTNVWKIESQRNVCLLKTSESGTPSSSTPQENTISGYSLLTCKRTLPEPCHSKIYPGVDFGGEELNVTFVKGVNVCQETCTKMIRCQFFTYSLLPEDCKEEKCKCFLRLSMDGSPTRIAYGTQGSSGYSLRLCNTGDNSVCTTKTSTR
T1 sequence (P03952 391-638 limits assumed): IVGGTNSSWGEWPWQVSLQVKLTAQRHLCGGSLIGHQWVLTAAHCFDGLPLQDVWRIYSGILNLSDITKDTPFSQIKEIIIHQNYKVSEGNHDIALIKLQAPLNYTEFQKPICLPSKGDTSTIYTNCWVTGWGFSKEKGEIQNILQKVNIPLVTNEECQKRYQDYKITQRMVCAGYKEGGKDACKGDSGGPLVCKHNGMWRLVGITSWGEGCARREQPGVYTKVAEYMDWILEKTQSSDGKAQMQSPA
Method in brief: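 Endpoint fluorescence (ex 355 nm, em 460 nm) after stopping with 1 μM final PPACK II. Buffer: Tris 100 mM pH 7.8, NaCl 150 mM, BSA 0.1%, Tween20 0.05%, with 1% DMSO present; enzyme is human plasma kallikrein.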

[1] = molecular target: T2, PKK in kaolin activated human platelet poor plasma (Homo sapiens, UniProt P03952); experiment: Inhibition of PKK in kaolin activated human PPP; type: biochemical; details: 25-750 μg/mL kaolin, global fit, text b200 calls the values IC90;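 note: readout is the rate of fluorogenic substrate cleavage in rfu per min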
T2 construct: Platelet poor plasma (PPP) obtained from human wholeblood; from tissue
T2 sequence (P03952 391-638 limits assumed): as above
T2 sequence (P03952 20-390 limits assumed): as the sequence (P03952 20-390 limits assumed) above
Procedure: Platelet poor plasma (PPP) obtained from human wholeblood, anticoagulated with Na-Citrate, is incubated with various concentrations of the test compound together with either 25, 75, 250, or 750 μg/mL kaolin in assay buffer for 20 min at 37° C. such that for each kaolin dose used a concentration response is obtained for the test compound.

| IC50 (Human PKK) | IC50 [1] | SMILES |
| --- | --- | --- |
| 0.0007 µM | 0.38 µM | Cn1cnc2c1CC[C@H]2NC(=O)c1cn(Cc2ccc(N3CC4CC4C3)nc2Br)cn1 (stereo partly drawn) [Example 39, 1-[(6-{3-Azabicyclo[3.1.0]hexan-3-yl}-2-bromopyridin-3-yl)methyl]-N-[(4R)-1-methyl-1H,4H,5H,6H-cyclopenta[d]imidazol-4-yl]-1H-imidazole-4-carboxamide] |
| 0.0034 µM | 0.488 µM | Cn1cnc2c1CC[C@H]2NC(=O)c1cnn(Cc2ccc(N3CC4C(C3)C4(F)F)cn2)c1 (stereo partly drawn) [Example 41, 1-[(5-{6,6-Difluoro-3-azabicyclo[3.1.0]hexan-3-yl}pyridin-2-yl)methyl]-N-[(4R)-1-methyl-1H,4H,5H,6H-cyclopenta[d]imidazol-4-yl]-1H-pyrazole-4-carboxamide] |
| 0.0018 µM | 0.444 µM | Cn1cnc2c1CC[C@H]2NC(=O)c1cnn(Cc2ccc(N3CC4C(C3)C4(F)F)nc2Cl)c1 (stereo partly drawn) [Example 44, 1-[(2-Chloro-6-{6,6-difluoro-3-azabicyclo-[3.1.0]hexan-3-yl}pyridin-3-yl)methyl]-N-[(4R)-1-methyl-1H,4H,5H,6H-cyclopenta[d]imidazol-4-yl]-1H-pyrazole-4-carboxamide] |
| 0.0007 µM | 0.151 µM | Cn1cnc2c1CC[C@H]2NC(=O)c1cn(Cc2ccc(N3CC4C(C3)C4(F)F)nc2C(F)F)cn1 (stereo partly drawn) [Example 45, 1-[(6-{6,6-Difluoro-3-azabicyclo[3.1.0]hexan-3-yl}-2-(difluoromethyl)pyridin-3-yl)methyl]-N-[(4R)-1-methyl-1H,4H,5H,6H-cyclopenta-[d]imidazol-4-yl]-1H-imidazole-4-carboxamide] |
| 0.001 µM | 0.162 µM | Cn1cnc2c1CC[C@H]2NC(=O)c1cnn(Cc2ccc(N3CC4C(C3)C4(F)F)nc2C(F)F)c1 (stereo partly drawn) [Example 46, 1-[(6-{6,6-Difluoro-3-azabicyclo[3.1.0]hexan-3-yl}-2-(difluoromethyl)pyridin-3-yl)methyl]-N-[(4R)-1-methyl-1H,4H,5H,6H-cyclopenta-[d]imidazol-4-yl]-1H-pyrazole-4-carboxamide] |
| 0.0017 µM | 0.11 µM | Cn1cnc2c1CC[C@H]2NC(=O)c1cn(Cc2ccc(N3CC4C(C3)C4(F)F)nc2CO)nn1 (stereo partly drawn) [Example 50, 1-[(6-{6,6-Difluoro-3-azabicyclo[3.1.0]hexan-3-yl}-2-(hydroxymethyl)pyridin-3-yl)methyl]-N-[(4R)-1-methyl-1H,4H,5H,6H-cyclopenta[d]-imidazol-4-yl]-1H-1,2,3-triazole-4-carboxamide] |
| 0.002 µM | 0.203 µM | Cn1cnc2c1CC[C@H]2NC(=O)c1cn(Cc2ccc(N3CC4C(C3)C4(F)F)cn2)cn1 (stereo partly drawn) [Example 53, 1-[(5-{6,6-Difluoro-3-azabicyclo[3.1.0]hexan-3-yl}pyridin-2-yl)methyl]-N-[(4R)-1-methyl-1H,4H,5H,6H-cyclopenta[d]imidazol-4-yl]-1H-imidazole-4-carboxamide] |
| 0.0023 µM | 0.25 µM | COCc1nc(N2CC3C(C2)C3(F)F)ccc1Cn1cc(C(=O)N[C@@H]2CCc3c2ncn3C)nn1 (stereo partly drawn) [Example 55, 1-[(6-{6,6-Difluoro-3-azabicyclo[3.1.0]hexan-3-yl}-2-(methoxymethyl)pyridin-3-yl)methyl]-N-[(4R)-1-methyl-1H,4H,5H,6H-cyclopenta[d]-imidazol-4-yl]-1H-1,2,3-triazole-4-carboxamide] |
| 0.0006 µM | 0.166 µM | Cn1cnc2c1CC[C@H]2NC(=O)c1cn(Cc2ccc(N3CC4C(C3)C4(F)F)nc2Cl)cn1 (stereo partly drawn) [Example 57, 1-[(2-Chloro-6-{6,6-difluoro-3-azabicyclo[3.1.0]-hexan-3-yl}pyridin-3-yl)methyl]-N-[(4R)-1-methyl-1H,4H,5H,6H-cyclopenta[d]imidazol-4-yl]-1H-imidazole-4-carboxamide] |
| 0.003 µM | 0.203 µM | Cn1cnc2c1CC[C@H]2NC(=O)c1cn(Cc2ccc(N3CC4C(C3)C4(F)F)nc2)cn1 (stereo partly drawn) [Example 63, 1-[(6-{6,6-Difluoro-3-azabicyclo[3.1.0]hexan-3-yl}pyridin-3-yl)methyl]-N-[(4R)-1-methyl-1H,4H,5H,6H-cyclopenta[d]imidazol-4-yl]-1H-imidazole-4-carboxamide] |
| 0.0007 µM | 0.221 µM | Cn1cnc2c1CC[C@H]2NC(=O)c1cn(Cc2ccc(N3CC4CC4C3)nc2C(F)F)cn1 (stereo partly drawn) [Example 64, 1-[(6-{3-Azabicyclo[3.1.0]hexan-3-yl}-2-(difluoromethyl)-pyridin-3-yl)methyl]-N-[(4R)-1-methyl-1H,4H,5H,6H-cyclopenta[d]imidazol-4-yl]-1H-imidazole-4-carboxamide] |
| 0.0007 µM | 0.839 µM | CCCc1nc(N2CC3C(C2)C3(F)F)ccc1Cn1cnc(C(=O)N[C@@H]2CCc3c2ncn3C)c1 (stereo partly drawn) [Example 66, 1-[(6-{6,6-Difluoro-3-azabicyclo[3.1.0]hexan-3-yl}-2-propylpyridin-3-yl)methyl]-N-[(4R)-1-methyl-1H,4H,5H,6H-cyclopenta[d]imidazol-4-yl]-1H-imidazole-4-carboxamide] |
| 0.0031 µM | 0.635 µM | Cn1cnc2c1CC[C@H]2NC(=O)c1cnn(Cc2ccc(N3CC4C(C3)C4(F)F)nc2C2CCC2)c1 (stereo partly drawn) [Example 67, 1-[(2-Cydobutyl-6-{6,6-difluoro-3-azabicyclo[3.1.0]hexan-3-yl}pyridin-3-yl)methyl]-N-[(4R)-1-methyl-1H,4H,5H,6H-cyclopenta[d]imidazol-4-yl]-1H-pyrazole-4-carboxamide] |

Continued, molecule first:

| SMILES | IC50 (Human PKK) | IC50 [1] |
| --- | --- | --- |
| Cn1cnc2c1CC[C@H]2NC(=O)c1cnn(Cc2ccc(N3CC4CC4C3)c(C#N)n2)c1 (stereo partly drawn) [Example 35, 1-[(5-{3-Azabicyclo[3.1.0]hexan-3-yl}-6-cyanopyridin-2-yl)methyl]-N-[(4R)-1-methyl-1H,4H,5H,6H-cyclopenta[d]imidazol-4-yl]-1H-pyrazole-4-carboxamide] | 0.0022 µM | 0.259 µM |
| CCc1nc(N2CC3(CC3)C2)ccc1Cn1cnc(C(=O)N[C@@H]2CCc3c2ncn3C)c1 [Example 37, 1-[(6-{5-Azaspiro[2.3]hexan-5-yl}-2-ethylpyridin-3-yl)methyl]-N-[(4R)-1-methyl-1H,4H,5H,6H-cyclopenta[d]imidazol-4-yl]-1H-imidazole-4-carboxamide] | 0.0009 µM | 0.125 µM |
| Cn1cnc2c1CC[C@H]2NC(=O)c1cnn(Cc2ccc(N3CC4CC4C3)nc2Br)c1 (stereo partly drawn) [Example 40, 1-[(6-{3-Azabicyclo[3.1.0]hexan-3-yl}-2-bromopyridin-3-yl)methyl]-N-[(4R)-1-methyl-1H,4H,5H,6H-cyclopenta[d]imidazol-4-yl]-1H-pyrazole-4-carboxamide] | 0.0012 µM | 0.543 µM |
| Cn1cnc2c1CC[C@H]2NC(=O)c1cnn(Cc2ccc(N3CC4CC4C3)nc2C2(C#N)CC2)c1 (stereo partly drawn) [Example 42, 1-[(6-{3-Azabicyclo[3.1.0]hexan-3-yl}-2-(1-cyanocyclopro-pyl)-pyridin-3-yl)methyl]-N-[(4R)-1-methyl-1H,4H,5H,6H-cyclopenta[d]imidazol-4-yl]-1H-pyrazole-4-carboxamide] | 0.0006 µM | 0.195 µM |
| Cn1cnc2c1CC[C@H]2NC(=O)c1cnn(Cc2ccc(N3CC4CC4C3)nc2C(F)F)c1 (stereo partly drawn) [Example 43, 1-[(6-{3-Azabicyclo[3.1.0]hexan-3-yl}-2-(difluoromethyl)-pyridin-3-yl)methyl]-N-[(4R)-1-methyl-1H,4H,5H,6H-cyclopenta[d]imidazol-4-yl]-1H-pyrazole-4-carboxamide] | 0.0009 µM | 0.308 µM |
| Cn1cnc2c1CC[C@H]2NC(=O)c1cnn(Cc2ccc(N3CC4CC4C3)nc2C(F)F)c1 (stereo partly drawn) [Example 48, 1-[(6-{3-Azabicyclo[3.1.0]hexan-3-yl}-2-(difluoromethyl)-pyridin-3-yl)methyl]-N-[(4R)-1-methyl-1H,4H,5H,6H-cyclopenta[d]imidazol-4-yl]-1H-pyrazole-4-carboxamide] | 0.0028 µM | 0.612 µM |
| Cn1cnc2c1CC[C@H]2NC(=O)c1cnn(Cc2ccc(N3CC4CC4C3)nc2CCCO)c1 (stereo partly drawn) [Example 54, 1-[(6-{3-Azabicyclo[3.1.0]hexan-3-yl}-2-(3-hydroxypropyl)-pyridin-3-yl)methyl]-N-[(4R)-1-methyl-1H,4H,5H,6H-cyclopenta[d]imidazol-4-yl]-1H-pyrazole-4-carboxamide] | 0.0007 µM | 0.109 µM |
| Cn1cnc2c1CC[C@H]2NC(=O)c1cnn(Cc2ccc(N3CC4(CC4)C3)nc2Cl)c1 [Example 56, 1-[(6-{5-Azaspiro[2.3]hexan-5-yl}-2-chloropyridin-3-yl)methyl]-N-[(4R)-1-methyl-1H,4H,5H,6H-cyclopenta[d]imidazol-4-yl]-1H-pyrazole-4-carboxamide] | 0.0018 µM | 0.586 µM |
| Cn1cnc2c1CC[C@H]2NC(=O)c1cnn(Cc2cnc(N3CC4CC4C3)nc2CO)c1 (stereo partly drawn) [Example 62, 1-[(2-{3-Azabicyclo[3.1.0]hexan-3-yl}-4-(hydroxymethyl)-pyrimidin-5-yl)methyl]-N-[(4R)-1-methyl-1H,4H,5H,6H-cyclopenta[d]imidazol-4-yl]-1H-pyrazole-4-carboxamide] | 0.014 µM | 0.769 µM |
| Cn1cnc2c1CC[C@H]2NC(=O)c1cnn(Cc2ccc(N3CC4CC4C3)nc2C(C)(C)C#N)c1 (stereo partly drawn) [Example 65, 1-[(6-{3-Azabicyclo[3.1.0]hexan-3-yl}-2-(1-cyano-1-methylethyl)pyridin-3-yl)methyl]-N-[(4R)-1-methyl-1H,4H,5H,6H-cyclopenta[d]-imidazol-4-yl]-1H-pyrazole-4-carboxamide] | 0.0014 µM | 1.23 µM |
